What was measured:
EpiSC-derived OPCs = experiment: In vitro phenotypic screening of OPCs (MBP staining, high-content imaging); type: cell-based, mouse; conditions: Mus musculus, 72 h, percentage of MBP+ oligodendrocytes, 3 days, 0.5 nM to 1000 nM; read-out: OPC EC50
Protocol: To assess effects of treatments on OPCs, all treatments were assayed in two or more independent platings of epiblast stem cell-derived OPCs (EpiSC). EpiSC-derived OPCs were obtained using in vitro differentiation protocols and culture conditions described previously (Najm et al, 2011, Nature Methods). OPCs were expanded and frozen down in aliquots. OPCs were thawed into growth conditions for at least one passage before use in further assays.
EpiSC-derived OPCs were grown and expanded in poly-L-ornithine (PO) and laminin-coated flasks in N2B27 media (DMEM/F12 (Gibco), N2-MAX (R&D Systems), B-27 (ThermoFisher), and GlutaMax (Gibco)) supplemented with FGF2 ([…], R&D systems, 233-FB-025) and PDGF-AA ([…], R&D systems, 233-AA-050) before harvesting for experiments. The cells were seeded onto poly-L-ornithine or poly-D-lysine coated CellCarrier Ultra plates (PerkinElmer) coated with laminin (Sigma, L2020) at a density of 150,000/cm^2 in N2B27 media without growth factors. For dose-response testing, a 1000× compound stock in dimethyl sulphoxide (DMSO) was added to assay plates, resulting in 8-point dose curves with final concentrations between 1000 nM and 0.5 nM. Positive controls and DMSO vehicle controls were included in each assay plate. Cells were incubated under standard conditions (37° C., 5% CO2) for 3 days and fixed with 4% paraformaldehyde (PFA) in phosphate buffered saline (PBS) for 20 min. Fixed plates were washed with PBS, permeabilized with 0.1% Triton X-100, and blocked with 10% donkey serum (v/v) in PBS for 40 min. Then, cells were labelled with MBP antibodies (Abcam, ab7349; 1:200) for 2 h at room temperature, washed with PBS, and stained with Alexa Fluor conjugated secondary antibodies (1:500) for 45 min. Nuclei were visualized by DAPI staining (Sigma; 1 μg/ml), followed by further PBS washes.
Cells and cell culture plates were imaged on the Operetta High Content Imaging and Analysis system (PerkinElmer). Analysis (PerkinElmer Harmony and Columbus software) began by identifying intact nuclei stained by DAPI. The peri-nuclear region of each cell was then cross-referenced with the mature myelin protein (MBP) stain to identify oligodendrocyte nuclei, and from this the percentage of oligodendrocytes was calculated. EC50 values were calculated using The Levenberg-Marquardt algorithm to fit a Hill equation to dose-response data (0.5 nM to 1000 nM).

[1] = test system: EBP (zymostenol accumulation in EpiSC-derived OPCs); experiment: GC/MS-based sterol profiling, zymostenol accumulation in OPCs; type: cell-based, mouse; conditions: Mus musculus, 24 h, EpiSC-derived OPCs, 24 hr treatment, 8 doses from 0.15 nM to 333 nM; read-out: Zymostenol GCMS EC50
Protocol: To assess effects of treatments on OPCs, all treatments were assayed in two or more independent platings of epiblast stem cell-derived OPCs ([…]-derived OPCs were obtained using in vitro differentiation protocols and culture conditions described previously (Najm et al, 2011, Nature Methods). OPCs were expanded and frozen down in aliquots. OPCs were thawed into growth conditions for at least one passage before use in further assays. Sterols were monitored using a modified Folch wash protocol (Hubler et al, 2018, Nature). EpiSC-derived OPCs were plated at 100,000 cells per well in PO- and laminin-coated 96-well plates in N2B27 media without growth factors. After 24 hours, cells were rinsed with saline and plates were frozen. Cholesterol-d7 standard was then added to each well before drying under nitrogen stream and derivatization with 55 μl of bis(trimethylsilyl) trifluoroacetamide. After derivatization, 2 μl were analyzed by gas chromatography/mass spectrometry using an Agilent 5973 Network Mass Selective Detector equipped with a 6890 gas chromatograph system and a HP-5MS capillary column (30 m×0.25 mm×0.25 mm). Samples were analyzed in full scan mode using electron impact ionization; ion fragment peaks were integrated to calculate sterol abundance, and quantitation was relative to cholesterol-d7. […] All standards were obtained from Avanti Polar Lipids unless otherwise indicated. Calibration curves were generated by injecting varying concentrations of sterol standards and maintaining a fixed amount of cholesterol-D7. For normalized zymostenol accumulation results, the total amount of zymostenol measured after drug treatment was divided by the total amount of zymostenol accumulated after 24 hr treatment with 100 nM positive control reference.

O=S1(=O)CC2(CCN([C@H]3CC[C@H](c4ccc(C(F)(F)F)cn4)CC3)C2)C1 [Compound 49, 6-((1r,4r)-4-(5-(Trifluoromethyl)pyridin-2-yl)cyclohexyl)-2-thia-6-azaspiro[3.4]octane 2,2-dioxide]
EC50 (EpiSC-derived OPCs): 15 nM | EC50 [1]: 9.9 nM

CC(C)n1nc(C(F)(F)F)cc1[C@H]1CC[C@@H](N2CCC[C@@]3(CCS(=O)(=O)C3)C2)CC1 (single isomer, unassigned) [91A*]
EC50 (EpiSC-derived OPCs): 9.4 nM | EC50 [1]: 3.4 nM

O=S1(=O)CC2(CCN([C@H]3CC[C@H](c4ccc(C(F)(F)F)cn4)CC3)CC2)C1 [Compound 50A, 7-((1r,4r)-4-(5-(Trifluoromethyl)pyridin-2-yl)cyclohexyl)-2-thia-7-azaspiro[3.5]nonane 2,2-dioxide]
EC50 (EpiSC-derived OPCs): 29 nM | EC50 [1]: 26 nM

O=S1(=O)CC2(CCN([C@H]3CC[C@@H](c4ccnc(C(F)(F)F)c4)CC3)CC2)C1 [Compound 90A, 7-((1s,4s)-4-(2-(Trifluoromethyl)pyridin-4-yl)cyclohexyl)-2-thia-7-azaspiro[3.5]nonane 2,2-dioxide]
EC50 (EpiSC-derived OPCs): 240 nM | EC50 [1]: 31 nM

O=S1(=O)CC[C@@]2(CCCN([C@H]3CC[C@@H](c4ccc(C(F)(F)F)nc4)CC3)C2)C1 (single isomer, unassigned) [71A*]
EC50 (EpiSC-derived OPCs): 19 nM | EC50 [1]: 6 nM

O=S1(=O)CC2(CCN([C@H]3CC[C@H](c4cnc(C(F)(F)F)c(F)c4)CC3)C2)C1 [Compound 72A, 6-((1r,4r)-4-(5-fluoro-6-(trifluoromethyl)pyridin-3-yl)cyclohexyl)-2-thia-6-azaspiro[3.4]octane 2,2-dioxide]
EC50 (EpiSC-derived OPCs): 18 nM | EC50 [1]: 9.4 nM

O=S1(=O)CC2(CCN([C@H]3CC[C@@H](c4ccc(C(F)(F)F)cn4)CC3)C2)C1 [Compound 96, 6-((1s,4s)-4-(5-(Trifluoromethyl)pyridin-2-yl)cyclohexyl)-2-thia-6-azaspiro[3.4]octane 2,2-dioxide]
EC50 (EpiSC-derived OPCs): 110 nM | EC50 [1]: 71 nM

O=S1(=O)CC2(CCN([C@H]3CC[C@@H](c4ccc(C(F)(F)F)cn4)CC3)CC2)C1 [Compound 50B, 7-((1s,4s)-4-(5-(trifluoromethyl)pyridin-2-yl)cyclohexyl)-2-thia-7-azaspiro[3.5]nonane 2,2-dioxide]
EC50 (EpiSC-derived OPCs): 45 nM | EC50 [1]: 32 nM

From patent US20240398781A1, “SPIROCYCLIC CYCLIC MODULATORS OF CHOLESTEROL BIOSYNTHESIS AND THEIR USE FOR PROMOTING REMYELINATION” (GENENTECH, INC., priority 2021, published 2024)
